This is an account of results in ChEMBL document CHEMBL3774347, “Docking and Linking of Fragments To Discover Jumonji Histone Demethylase Inhibitors” (J Med Chem, 2016).

pIC50, pKi: −log10 of the molar value.

For experiment [1], the target named is T1, Lysine-specific demethylase 4C (Homo sapiens, UniProt Q9H3R0).
T1 sequence (Q9H3R0 whole entry): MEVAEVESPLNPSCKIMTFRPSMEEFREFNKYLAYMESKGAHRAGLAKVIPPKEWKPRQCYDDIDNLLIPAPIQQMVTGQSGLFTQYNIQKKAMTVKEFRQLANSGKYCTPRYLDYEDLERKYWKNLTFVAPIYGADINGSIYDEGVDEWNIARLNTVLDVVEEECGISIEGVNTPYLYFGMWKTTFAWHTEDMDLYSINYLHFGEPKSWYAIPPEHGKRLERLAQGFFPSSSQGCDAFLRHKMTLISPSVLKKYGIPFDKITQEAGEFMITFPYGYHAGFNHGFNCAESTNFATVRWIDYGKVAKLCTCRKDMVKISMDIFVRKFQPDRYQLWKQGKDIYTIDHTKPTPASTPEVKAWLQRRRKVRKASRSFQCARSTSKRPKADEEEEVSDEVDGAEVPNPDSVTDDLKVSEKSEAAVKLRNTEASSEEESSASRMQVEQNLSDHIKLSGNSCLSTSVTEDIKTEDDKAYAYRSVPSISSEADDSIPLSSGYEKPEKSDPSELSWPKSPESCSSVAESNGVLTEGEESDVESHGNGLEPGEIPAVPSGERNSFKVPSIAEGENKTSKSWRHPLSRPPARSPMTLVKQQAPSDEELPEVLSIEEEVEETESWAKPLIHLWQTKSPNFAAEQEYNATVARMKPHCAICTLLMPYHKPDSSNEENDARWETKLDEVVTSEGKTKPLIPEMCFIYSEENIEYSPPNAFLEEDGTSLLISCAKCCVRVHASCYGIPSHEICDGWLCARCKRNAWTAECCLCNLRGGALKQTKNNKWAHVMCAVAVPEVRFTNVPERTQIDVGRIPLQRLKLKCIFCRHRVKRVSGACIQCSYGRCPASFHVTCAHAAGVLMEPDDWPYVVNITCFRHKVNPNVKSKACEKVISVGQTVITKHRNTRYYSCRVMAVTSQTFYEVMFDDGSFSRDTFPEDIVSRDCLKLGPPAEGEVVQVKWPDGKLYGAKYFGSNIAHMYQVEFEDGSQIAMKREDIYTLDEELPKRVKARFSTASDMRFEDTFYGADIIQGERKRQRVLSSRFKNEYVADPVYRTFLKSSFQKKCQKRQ

The target in experiment [2] is T1, Lysine-specific demethylase 4C. Description: Competitive inhibition of N-terminal His6-tagged KDM4C (1 to 352 residues) (unknown origin) expressed in Escherichia coli Rosetta 2(DE3)pLysS using 250 uM ARK(Me3)STGGK peptide/50 uM alpha-ketoglutarate as substrate/cofactor by FDH coupling-based Lineweaver-Burk plot analysis.
The target is the same in experiment [3]. Put plainly: Competitive inhibition of N-terminal His6-tagged KDM4C (1 to 352 residues) (unknown origin) expressed in Escherichia coli Rosetta 2(DE3)pLysS using 50 uM ARK(Me3)STGGK peptide/5 uM alpha-ketoglutarate as substrate/cofactor by FDH coupling-based Lineweaver-Burk plot analysis.
For experiment [4] the target is unchanged. Description: Competitive inhibition of N-terminal His6-tagged KDM4C (1 to 352 residues) (unknown origin) expressed in Escherichia coli Rosetta 2(DE3)pLysS using 50 uM ARK(Me3)STGGK peptide/50 uM alpha-ketoglutarate as substrate/cofactor by FDH coupling-based Lineweaver-Burk plot analysis.

Usually pKi stands for the Ki on a negative log10 scale, so that one unit is a factor of ten. As a reminder, the pIC50 is −log10 of the IC50, conventionally taken in molar units. The low end stands for a large IC50, the high end for a small IC50. Compound `O=C(O)c1ccnc(-c2cc(NC(=O)c3ccc(O)cc3)ccc2O)c1` showed a negative logarithm of the Ki (pKi) in experiment [1] of 7.36. For the same compound, the pIC50 in experiment [2] is 5.26; in experiment [3], 5.96; in experiment [4], 5.32.
In the same order, the values of `COCC(=O)Nc1ccc(O)c(-c2cc(C(=O)O)ccn2)c1` are 6.17, 4.83, 5.48 and 4.85.
